From patent US12011444B2, “N-substituted indole derivatives as PGE2 receptor modulators” (Idorsia Pharmaceuticals Ltd, priority 2015, dated 2024) come the findings set out here.

One test has as its target PTGER2 (EP2) (Homo sapiens (Human), UniProt P43116). Kind of test: hEP2 b-arrestin assay (PathHunter HEK 293 PTGER2 b-arrestin cells). The test is classed as cell-based. To be noted: hEP2 b-arrestin assay (values without asterisk). The method in brief:
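Readout is β-galactosidase complementation luminescence, expressed as percent of DMSO control (duplicates). PathHunter HEK293 EP2/β-arrestin 2 cells, grown 24 h, received compound for 15 min at 37 °C before a 120 min challenge with PGE2 at 5 μM final, followed by 1 h detection at room temperature.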

A further test deals with PTRGER4 (EP4) (Homo sapiens (Human), UniProt P35408). Kind of test: hEP4 b-arrestin assay (PathHunter HEK 293 PTGER4 b-arrestin cells). The test is classed as cell-based. The settings on record: hEP4 b-arrestin assay (values without asterisk). The method in brief: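 Antagonist mode: compound is given 15 min at 37 °C, then 20 nM (final) PGE2 for 120 min, in HEK293 cells stably expressing EP4 fused to ProLink and β-arrestin 2 fused to EA. Recruitment read as β-gal luminescence after 1 h reagent at room temperature, as percent of DMSO control.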

pIC50: −log10 of the molar value.

PTRGER4 (EP4), sequence (P35408 whole entry, looked up, the tested form may be a part): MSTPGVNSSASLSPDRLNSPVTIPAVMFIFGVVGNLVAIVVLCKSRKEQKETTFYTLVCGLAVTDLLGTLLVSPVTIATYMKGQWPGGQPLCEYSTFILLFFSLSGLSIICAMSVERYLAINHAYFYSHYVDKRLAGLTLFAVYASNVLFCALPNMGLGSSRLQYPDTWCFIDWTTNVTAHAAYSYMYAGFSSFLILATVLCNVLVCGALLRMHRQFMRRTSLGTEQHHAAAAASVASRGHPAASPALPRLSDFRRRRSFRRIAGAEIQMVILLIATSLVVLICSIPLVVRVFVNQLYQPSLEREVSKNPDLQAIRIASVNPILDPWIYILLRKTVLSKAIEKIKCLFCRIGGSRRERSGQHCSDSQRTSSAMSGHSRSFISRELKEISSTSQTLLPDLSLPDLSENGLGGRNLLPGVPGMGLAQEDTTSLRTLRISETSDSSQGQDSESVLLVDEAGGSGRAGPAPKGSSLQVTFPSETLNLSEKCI
PTGER2 (EP2), sequence (P43116 whole entry): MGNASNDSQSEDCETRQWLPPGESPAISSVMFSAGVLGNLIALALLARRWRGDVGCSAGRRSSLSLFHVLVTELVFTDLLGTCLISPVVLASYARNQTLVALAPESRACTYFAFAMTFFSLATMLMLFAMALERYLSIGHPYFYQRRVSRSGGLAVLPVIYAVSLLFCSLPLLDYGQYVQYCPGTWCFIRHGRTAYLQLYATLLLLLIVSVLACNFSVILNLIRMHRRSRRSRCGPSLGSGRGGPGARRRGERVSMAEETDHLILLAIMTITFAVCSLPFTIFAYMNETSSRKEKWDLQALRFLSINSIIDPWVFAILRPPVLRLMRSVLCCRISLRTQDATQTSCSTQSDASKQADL

Regarding `CCOc1cc(-c2cc(NCCn3c(C)cc4c(OC)cc(F)cc43)ncn2)ccc1NCC(=O)O` [Example 882, (2-Ethoxy-4-{6-[2-(6-fluoro-4-methoxy-2-methyl-indol-1-yl)-ethylamino]-pyrimidin-4-yl}-phenylamino)-acetic acid], the negative-log IC50 (pIC50) against PTGER2 (EP2) was 7.96; at PTRGER4 (EP4), 7.26.
The corresponding values for `CCOc1cc(-c2cc(NCCn3c(C)cc4c(Cl)c(F)cc(Cl)c43)ncn2)sc1C(=O)O` [Example 883, 5-{6-[2-(4,7-Dichloro-5-fluoro-2-methyl-indol-1-yl)-ethylamino]-pyrimidin-4-yl}-3-ethoxy-thiophene-2-carboxylic acid] are 8.15 and 7.20.
For `CCCCOc1cc(-c2cc(NCCn3c(C)cc4c(OC)cc(Cl)c(F)c43)ncn2)ccc1C(=O)O` [Example 884, 2-Butoxy-4-{6-[2-(6-chloro-7-fluoro-4-methoxy-2-methyl-indol-1-yl)-ethylamino]-pyrimidin-4-yl}benzoic acid], in that order: 8.00 and 7.08.
Consider `CCOc1cc(-c2cc(NCCn3c(C)cc4c(OC)c(F)cc(Cl)c43)ncn2)sc1C(=O)O` [Example 885, 5-{6-[2-(7-Chloro-5-fluoro-4-methoxy-2-methyl-indol-1-yl)-ethylamino]-pyrimidin-4-yl}-3-ethoxy-thiophene-2-carboxylic acid], for which the results for the negative logarithm of the IC50 (pIC50) at PTGER2 (EP2) and against PTRGER4 (EP4) were 7.40 and 7.05, respectively.
Regarding `COc1cc(-c2cc(NCCn3c(C)cc4c(OC)ccc(F)c43)ncn2)ccc1CC(=O)O` [Example 886, (4-{6-[2-(7-Fluoro-4-methoxy-2-methyl-indol-1-yl)-ethylamino]-pyrimidin-4-yl}-2-methoxy-phenyl)-acetic acid], the negative-log IC50 (pIC50) at PTGER2 (EP2) is 7.38; at PTRGER4 (EP4) it was 6.90.
`COc1ccc(F)c2c1cc(C#N)n2CCNc1cc(-c2ccc(C(F)(F)C(=O)O)cc2)ncn1` [Example 887, (4-{6-[2-(2-Cyano-7-fluoro-4-methoxy-indol-1-yl)-ethylamino]-pyrimidin-4-yl}-phenyl)-difluoro-acetic acid]: the results for the pIC50 on PTGER2 (EP2) and on PTRGER4 (EP4) were 7.05 and 6.75, respectively.
The corresponding values for `COc1ccc(F)c2c1cc(C)n2CCNc1cc(-c2ccc(C(=O)O)c(C#N)c2)ncn1` [Example 888, 2-Cyano-4-{6-[2-(7-fluoro-4-methoxy-2-methyl-indol-1-yl)-ethylamino]-pyrimidin-4-yl}-benzoic acid] are 7.39 and 6.33.
For `CCOc1cc(-c2cc(NCCn3c(C#N)cc4c(Cl)cc(Cl)cc43)ncn2)sc1C(=O)O` [Example 889, 5-{6-[2-(4,6-Dichloro-2-cyano-indol-1-yl)-ethylamino]-pyrimidin-4-yl}-3-ethoxy-thiophene-2-carboxylic acid], in that order: 9.00 and 7.46.
The corresponding values for `CCOc1cc(-c2cc(NCCn3c(C#N)cc4c(C)c(F)c(F)cc43)ncn2)sc1C(=O)O` [Example 890, 5-{6-[2-(2-Cyano-5,6-difluoro-4-methyl-indol-1-yl)-ethylamino]-pyrimidin-4-yl}-3-ethoxy-thiophene-2-carboxylic acid] are 8.70 and 7.64.
For the compound `CCOc1cc(-c2cc(NCCn3c(C#N)cc4c(C)ccc(F)c43)ncn2)sc1C(=O)O` [Example 891, 5-{6-[2-(2-Cyano-7-fluoro-4-methyl-indol-1-yl)-ethylamino]-pyrimidin-4-yl}-3-ethoxy-thiophene-2-carboxylic acid], the pIC50 against PTGER2 (EP2) is 8.22; at PTRGER4 (EP4) it was 8.52.
The corresponding values for `CCOc1cc(-c2cc(NCCn3c(C#N)cc4cccc(F)c43)ncn2)sc1C(=O)O` [Example 892, 5-{6-[2-(2-Cyano-7-fluoro-indol-1-yl)-ethylamino]-pyrimidin-4-yl}-3-ethoxy-thiophene-2-carboxylic acid] are 9.00 and 7.62.
